Measured values: ChEMBL document CHEMBL1130798, “Structure based design: novel spirocyclic ethers as nonpeptidal P2-ligands for HIV protease inhibitors” (Bioorg Med Chem Lett, 1998)
pIC50, pKi: −log10 of the molar value.

Key:
[1] = molecular target: Human immunodeficiency virus type 1 protease (Human immunodeficiency virus 1, UniProt Q72874); assay: Compound was evaluated for binding affinity against HIV protease
MT4 = assay: Compound was evaluated for the inhibition spread of HIV-1 in MT-4 human T-lymphoid cells infected with IIIB isolate; format: functional; settings: read-out: ID50 (the source's name)

For `COc1ccc(S(=O)(=O)N(CC(C)C)C[C@@H](O)[C@H](Cc2ccccc2)NC(=O)[C@H]2C[C@]3(CCCO3)CCO2)cc1`, the pKi [1] was < 5.70.
`CCC[C@@]1(O)CCO[C@H](C(=O)N[C@@H](Cc2ccccc2)[C@H](O)CN(CC(C)C)S(=O)(=O)c2ccc(OC)cc2)C1` was tested, and the pIC50 (MT4) was < 5.00 and the pKi [1] was 6.32.
With `CCC[C@@]1(O)CCO[C@@H](C(=O)N[C@@H](Cc2ccccc2)[C@H](O)CN(CC(C)C)S(=O)(=O)c2ccc(OC)cc2)C1` the pKi [1] was < 6.00.
With `COc1ccc(S(=O)(=O)N(CC(C)C)C[C@@H](O)[C@H](Cc2ccccc2)NC(=O)C2CC3(CCCC3)CCO2)cc1` (stereo not given in full) the pKi [1] was 5.82.
Compound `COc1ccc(S(=O)(=O)N(CC(C)C)C[C@@H](O)[C@H](Cc2ccccc2)NC(=O)[C@H]2C[C@@]3(CCCO3)CCO2)cc1` has a pIC50 (MT4) of 5.04 and a pKi [1] of 6.40.
In the case of `COc1ccc(S(=O)(=O)N(CC(C)C)C[C@@H](O)[C@H](Cc2ccccc2)NC(=O)[C@@H]2C[C@@]3(CCCO3)CCO2)cc1`, the pIC50 (MT4) was 5.62 and the pKi [1] was 7.70.
`CC(C)(C)NC(=O)C1CC2CCCCC2CN1C[C@@H](O)[C@H](Cc1ccccc1)NC(=O)[C@H](CC(N)=O)NC(=O)c1ccc2ccccc2n1` (single isomer, unassigned) showed a pIC50 (MT4) of 4.74.
For `CCC[C@]1(O)CCO[C@H](C(=O)N[C@@H](Cc2ccccc2)[C@H](O)CN(CC(C)C)S(=O)(=O)c2ccc(OC)cc2)C1`, the pKi [1] was < 6.00.
`COc1ccc(S(=O)(=O)N(CC(C)C)C[C@@H](O)[C@H](Cc2ccccc2)NC(=O)[C@@H]2C[C@]3(CCCO3)CCO2)cc1` showed a pIC50 (MT4) of 5.35 and a pKi [1] of 6.82.
For `CCC[C@]1(O)CCO[C@@H](C(=O)N[C@@H](Cc2ccccc2)[C@H](O)CN(CC(C)C)S(=O)(=O)c2ccc(OC)cc2)C1`, the pIC50 (MT4) was 5.47 and the pKi [1] was 6.82.
